Source: patent US8470862B2, “Treatment or prevention of hypotension and shock” (Recro Pharma, Inc., priority 1999, dated 2013)

Tested on: anaesthetized rats
Assay: Blood pressure and heart rate after slow intravenous administration in anaesthetized rats
Assay type: in vivo
Details: for HR (beats/min) / MAP (mmHg): mean ± SEM, n=6; for maximal change in HR / maximal change in MAP: percent change from baseline
Protocol: The effects of 3-(1H-imidazol-4-ylmethyl)-indan-5-ol on blood pressure and heart rate after slow intravenous administration were studied in anaesthetized rats. Dexmedetomidine (Orion Corporation Orion Pharma, Finland), a specific α2-adrenoceptor agonist was studied as a reference compound.
Male Spraque-Dawley rats (B&K, Sweden), weighing 290-400 g, were anaesthetized with sodium pentobarbital (Mebunat® 60 mg/ml) 75 mg/kg i.p. The left femoral vein was cannulated (PE-50) for slow drug injections. The left femoral artery was cannulated (PE-60) and the mean arterial blood pressure (MAP) and heart rate (HR) were recorded continuously via a Micro MP-15 transducer connected to a Grass Model 7D Polygraph. Arterial pressure was sampled at a rate 150 samples/second and recorded on a Pinus PC computer using the software program AcqKnowledge version 3.5.3 and a MP100A data acquisition unit for analog/digital conversion (BIOPAC Systems, Inc.). Pulse waves of the blood pressure were used for displaying heart rate continuously. The body temperature (rectal) was kept constant at 37±0.5° C. by warming with a lamp above the animal's chest. Only rats with MAP of 73 mmHg or higher were used for the tests. After a stabilizing period of 10-20 min, 3-(1H-imidazol-4-ylmethyl)-indan-5-ol (1 and 3 μg/kg, as hydrochloride) or dexmedetomidine (3 and 10 μg/kg, as hydrochlorides) dose was given as slow intravenous injection (during 5 min) by an infusion pump (Perfusor® ED 2, B. Braun). The total injection volume was adjusted to 1 ml in each experimental group.

[1] = dose 3 μg/kg slow i.v. (during 5 min), time 0 min
[2] = dose 3 μg/kg slow i.v. (during 5 min), time 3 min
[3] = dose 3 μg/kg slow i.v. (during 5 min), time 5 min
[4] = dose 3 μg/kg slow i.v. (during 5 min), time 10 min
[5] = dose 3 μg/kg slow i.v. (during 5 min), time 20 min
[6] = dose 3 μg/kg slow i.v. (during 5 min), time 30 min
[7] = dose 10 μg/kg slow i.v. (during 5 min), time 0 min
[8] = dose 10 μg/kg slow i.v. (during 5 min), time 2 min
[9] = dose 10 μg/kg slow i.v. (during 5 min), time 5 min
[10] = dose 10 μg/kg slow i.v. (during 5 min), time 10 min
[11] = dose 10 μg/kg slow i.v. (during 5 min), time 20 min
[12] = dose 10 μg/kg slow i.v. (during 5 min), time 30 min
[13] = slow intravenous administration of 3 and 10 μg/kg
[14] = dose 1 μg/kg slow i.v. (during 5 min), time 0 min
[15] = dose 1 μg/kg slow i.v. (during 5 min), time 3 min
[16] = dose 1 μg/kg slow i.v. (during 5 min), time 5 min
[17] = dose 1 μg/kg slow i.v. (during 5 min), time 10 min
[18] = dose 1 μg/kg slow i.v. (during 5 min), time 20 min
[19] = dose 1 μg/kg slow i.v. (during 5 min), time 30 min
[20] = slow (during 5 minutes) i.v. dosing of 1 and 3 μg/kg

Compound: Cc1cccc([C@H](C)c2cnc[nH]2)c1C [Dexmedetomidine, dexmedetomidine]
- HR (beats/min) [1]: 348 ± 12 beats/min
- MAP (mmHg) [1]: 89 ± 5 mmHg
- HR (beats/min) [2]: 310 ± 6 beats/min
- MAP (mmHg) [2]: 86 ± 5 mmHg
- HR (beats/min) [3]: 310 ± 5 beats/min
- MAP (mmHg) [3]: 79 ± 7 mmHg
- HR (beats/min) [4]: 308 ± 4 beats/min
- MAP (mmHg) [4]: 61 ± 4 mmHg
- HR (beats/min) [5]: 309 ± 5 beats/min
- MAP (mmHg) [5]: 65 ± 2 mmHg
- HR (beats/min) [6]: 309 ± 5 beats/min
- MAP (mmHg) [6]: 67 ± 2 mmHg
- HR (beats/min) [7]: 383 ± 11 beats/min
- MAP (mmHg) [7]: 92 ± 2 mmHg
- HR (beats/min) [8]: 308 ± 5 beats/min
- MAP (mmHg) [8]: 94 ± 4 mmHg
- HR (beats/min) [9]: 309 ± 3 beats/min
- MAP (mmHg) [9]: 75 ± 6 mmHg
- HR (beats/min) [10]: 303 ± 3 beats/min
- MAP (mmHg) [10]: 59 ± 3 mmHg
- HR (beats/min) [11]: 296 ± 7 beats/min
- MAP (mmHg) [11]: 68 ± 2 mmHg
- HR (beats/min) [12]: 297 ± 6 beats/min
- MAP (mmHg) [12]: 73 ± 2 mmHg
- maximal change in HR [13]: −21%
- maximal change in MAP [13]: −37%

Compound: Oc1ccc2c(c1)C(Cc1c[nH]cn1)CC2 (stereo not shown) [MPV-2426 Al, 3-(1H-imidazol-4-ylmethyl)-indan-5-ol]
- HR (beats/min) [14]: 373 ± 8 beats/min
- MAP (mmHg) [14]: 97 ± 4 mmHg
- HR (beats/min) [15]: 324 ± 9 beats/min
- MAP (mmHg) [15]: 114 ± 3 mmHg
- HR (beats/min) [16]: 321 ± 9 beats/min
- MAP (mmHg) [16]: 112 ± 3 mmHg
- HR (beats/min) [17]: 327 ± 7 beats/min
- MAP (mmHg) [17]: 83 ± 4 mmHg
- HR (beats/min) [18]: 319 ± 9 beats/min
- MAP (mmHg) [18]: 84 ± 4 mmHg
- HR (beats/min) [19]: 317 ± 9 beats/min
- MAP (mmHg) [19]: 80 ± 3 mmHg
- HR (beats/min) [1]: 366 ± 11 beats/min
- MAP (mmHg) [1]: 94 ± 5 mmHg
- HR (beats/min) [2]: 309 ± 7 beats/min
- MAP (mmHg) [2]: 123 ± 9 mmHg
- HR (beats/min) [3]: 311 ± 4 beats/min
- MAP (mmHg) [3]: 117 ± 12 mmHg
- HR (beats/min) [4]: 321 ± 4 beats/min
- MAP (mmHg) [4]: 88 ± 4 mmHg
- HR (beats/min) [5]: 321 ± 6 beats/min
- MAP (mmHg) [5]: 83 ± 5 mmHg
- HR (beats/min) [6]: 305 ± 6 beats/min
- MAP (mmHg) [6]: 77 ± 3 mmHg
- maximal change in HR [20]: −19%
- maximal change in MAP [20]: +31%
